Our source for the TGI values is PubChem BioAssay (NCI).

Among the test systems are K-562 leukemia; BT-549 breast; SF-268 CNS; DU-145 prostate; HCC-2998 colon; SK-OV-3 ovarian; M14 melanoma; TK-10 renal; EKVX NSCLC; HOP-62 NSCLC; SF-295 CNS; KM12 colon; UO-31 renal; HS 578T breast; MDA-MB-231 breast; SK-MEL-5 melanoma; MCF7 breast; SNB-19 CNS; A498 renal.
What all share (assay): growth of human tumour cells (NCI), 48 h

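Cultured in 96-well plates, cells were exposed to test compound for 48 hours across five concentrations. At the TGI there is no net growth.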

As for `N#Cc1c(N2CCCC2)nsc1NCc1ccccc1`, the TGI with K-562 leukemia, in the experiment with BT-549 breast, with SF-268 CNS, in the experiment with DU-145 prostate, in the experiment with HCC-2998 colon and in the experiment with SK-OV-3 ovarian was over 100 µM throughout. The TGI with M14 melanoma, in the experiment on TK-10 renal, in the experiment on EKVX NSCLC, in the experiment on HOP-62 NSCLC, in the experiment with SF-295 CNS and in the experiment on KM12 colon was over 100 µM throughout. Moreover, the TGI with UO-31 renal is 65 µM; in the experiment with HS 578T breast, over 100 µM; with MDA-MB-231 breast, over 100 µM; in the experiment with SK-MEL-5 melanoma, over 100 µM; in the experiment with MCF7 breast it was over 100 µM; in the experiment on SNB-19 CNS, over 100 µM. The TGI in the experiment on A498 renal was over 100 µM.
With `O=C1c2c(Cl)c(Cl)c(Cl)c(Cl)c2C(=O)N1CCN(c1c(Cl)ssc1=O)c1c(Cl)ssc1=O`, the TGI with K-562 leukemia was 53.4 µM; in the experiment with BT-549 breast, over 100 µM; in the experiment on SF-268 CNS, over 100 µM; with DU-145 prostate, 36.7 µM; in the experiment on HCC-2998 colon, 58.8 µM; in the experiment with SK-OV-3 ovarian, over 100 µM. The TGI in the experiment with M14 melanoma was 46.2 µM; in the experiment with TK-10 renal, 33.5 µM; with EKVX NSCLC, 88.6 µM; in the experiment on HOP-62 NSCLC it was over 100 µM; in the experiment with SF-295 CNS, over 100 µM; with KM12 colon, over 100 µM. Further, the TGI in the experiment with UO-31 renal was 32.3 µM; in the experiment with HS 578T breast, over 100 µM; in the experiment with MDA-MB-231 breast, over 100 µM; in the experiment on SK-MEL-5 melanoma it was over 100 µM; with MCF7 breast it was 44.8 µM; in the experiment with SNB-19 CNS, over 100 µM. The TGI in the experiment with A498 renal is over 100 µM.
On to `CCCCCCCC1C(C)c2c([nH]c3ccccc23)C2C(=O)N(c3ccc(OC)cc3)C(=O)C21` (stereo not drawn), for which the TGI with K-562 leukemia is over 6.39 µM; in the experiment with BT-549 breast, 6.56 µM; in the experiment with SF-268 CNS, over 10 µM; with DU-145 prostate, over 10 µM; in the experiment on HCC-2998 colon, over 10 µM; in the experiment on SK-OV-3 ovarian, over 10 µM. The TGI with M14 melanoma is over 9.51 µM; with TK-10 renal it was 5.37 µM; in the experiment on EKVX NSCLC, over 10 µM; in the experiment with HOP-62 NSCLC, over 7.78 µM; in the experiment with SF-295 CNS, over 6.64 µM; with KM12 colon, over 10 µM. Further, the TGI in the experiment on UO-31 renal is 6.86 µM; in the experiment with HS 578T breast, 4.88 µM; in the experiment with MDA-MB-231 breast, over 7.84 µM; in the experiment with SK-MEL-5 melanoma, over 10 µM; in the experiment with MCF7 breast, over 10 µM; with SNB-19 CNS it was 9.92 µM. In the experiment with A498 renal, this compound showed a TGI of 5.47 µM.
With `Cc1c2c(c(C)n1-c1ccccc1)C(=O)N(CCCCN1CCN(c3ccccc3)CC1)C2=O`, the TGI in the experiment with K-562 leukemia was 37.6 µM; in the experiment with BT-549 breast it was 49.3 µM; with SF-268 CNS it was over 100 µM; with DU-145 prostate, over 100 µM; in the experiment with HCC-2998 colon, 27.1 µM; in the experiment on SK-OV-3 ovarian, over 100 µM. In addition, the TGI in the experiment on M14 melanoma was 79.7 µM; in the experiment on TK-10 renal it was over 100 µM; in the experiment with EKVX NSCLC, 65.7 µM; in the experiment with HOP-62 NSCLC, 36.1 µM; with SF-295 CNS, 53.7 µM; in the experiment on KM12 colon, over 100 µM. Besides, the TGI in the experiment on UO-31 renal was 24.8 µM; in the experiment with HS 578T breast, over 100 µM; in the experiment on MDA-MB-231 breast it was 24.1 µM; with SK-MEL-5 melanoma, 13.6 µM; with MCF7 breast, 35.8 µM; with SNB-19 CNS, over 100 µM. The compound further yielded a TGI in the experiment on A498 renal of 69 µM.
`CCCCCC(C)(C)CCC(=O)OC1OC(COC2OC(COC3OC(CO)C(O)C(O)C3O)C(O)C(O)C2O)C(O)C(O)C1O` (stereo not drawn): the TGI with K-562 leukemia, in the experiment with BT-549 breast, in the experiment on SF-268 CNS, in the experiment on DU-145 prostate, with HCC-2998 colon and in the experiment on SK-OV-3 ovarian was over 100 µM throughout. The TGI with M14 melanoma, in the experiment on TK-10 renal, in the experiment with EKVX NSCLC, with HOP-62 NSCLC, in the experiment on SF-295 CNS and in the experiment with KM12 colon was over 100 µM throughout. Besides, the TGI in the experiment with UO-31 renal, with HS 578T breast, with MDA-MB-231 breast, in the experiment on SK-MEL-5 melanoma, in the experiment with MCF7 breast and with SNB-19 CNS was over 100 µM in each case. This compound also came in with a TGI in the experiment on A498 renal of over 100 µM.
In the case of `CCC1=NC(N/N=C/c2ccco2)=N/C1=C\c1ccccc1O`, the TGI is over 100 µM with K-562 leukemia; over 100 µM with BT-549 breast; over 100 µM with SF-268 CNS; over 100 µM in the experiment on DU-145 prostate; 89.8 µM in the experiment with HCC-2998 colon; over 100 µM in the experiment with SK-OV-3 ovarian. Also, the TGI with M14 melanoma, in the experiment on TK-10 renal, in the experiment on EKVX NSCLC, with HOP-62 NSCLC, in the experiment with SF-295 CNS and with KM12 colon was over 100 µM in each case. Moreover, the TGI in the experiment with UO-31 renal, in the experiment on HS 578T breast, with MDA-MB-231 breast, in the experiment with SK-MEL-5 melanoma, with MCF7 breast and in the experiment on SNB-19 CNS was over 100 µM each time. The TGI in the experiment with A498 renal was over 100 µM.
For the compound `CC1(C)[C@H](C(=O)O)N2C(=O)[C@@H](NS(=O)(=O)c3ccc([N+](=O)[O-])cc3)[C@H]2S1(=O)=O`, the TGI in the experiment with K-562 leukemia, in the experiment on BT-549 breast, in the experiment on SF-268 CNS, with DU-145 prostate, in the experiment on HCC-2998 colon and in the experiment with SK-OV-3 ovarian was over 100 µM each time. The TGI in the experiment on M14 melanoma, with TK-10 renal, in the experiment with EKVX NSCLC, in the experiment on HOP-62 NSCLC, in the experiment with SF-295 CNS and with KM12 colon was over 100 µM in each case. In addition, the TGI in the experiment with UO-31 renal, in the experiment with HS 578T breast, with MDA-MB-231 breast, in the experiment with SK-MEL-5 melanoma, in the experiment with MCF7 breast and in the experiment on SNB-19 CNS was over 100 µM each time. The compound also yielded a TGI in the experiment on A498 renal of over 100 µM.
